In brackets after ≈: the same amount, converted by molar mass. Read-outs that look alike come from different tables or passages of the source.
Legend:
[1] = system: Eco MG1655 ∆tolC (EN243); assay: MIC, efflux-defective parental strain EN243; assay type: cell-based, E. coli; conditions: Escherichia coli, MG1655, read-out: MIC EN243
Description: (§1) Minimum inhibitory concentration (MIC) values were determined according to the Clinical Laboratory Standards Institute guidelines. Frequency of resistance was determined by plating ~5 × 10^8 bacterial cells on agar-solidified media plates containing test compound at concentrations corresponding to four times the measured solid-media MIC of the strains. Colonies were counted after 24 h, restreaked onto media containing the same concentration of compound, and the MIC remeasured against the assayed compound. Genomic DNA from isolated clones was sequenced by paired-end sequencing on an Illumina MiSeq device. Complete experimental details available in SI Appendix. […]
(§2) Minimum inhibitory concentration (MIC) determination. Broth microdilution and agar dilution
(§3) MIC assays were conducted according to CLSI guidelines (M07-2012). Appropriate inoculation
(§4) suspension density was assessed using a Sensititre Nephelometer with a Sensititre 0.5
(§5) McFarland Standard. […]

[2] = system: E. coli ATCC 25922; assay: MIC (CLSI broth microdilution), wild-type E. coli; assay type: cell-based; conditions: Escherichia coli, ATCC25922; read-out: MIC E. coli ATCC 25922 Wild-type
Description: as §1, §2, §3, §4, §5

[3] = system: K. pneumoniae ATCC 13883; assay: MIC, K. pneumoniae, with and without 50% human serum; assay type: cell-based; conditions: Klebsiella pneumoniae
Description: as §1, §2, §3, §4
McFarland Standard. Serum MICs were conducted in 50% heat-inactivated pooled human

[4] = system: lpxH mutants of EN243 (Eco MG1655 ∆tolC); assay: MIC, lpxH mutants with reduced susceptibility in efflux-defective E. coli background; assay type: cell-based; conditions: Escherichia coli
Description: as §1
(§6) Minimum inhibitory concentration (MIC) determination. Broth microdilution and agar dilution MIC assays were conducted according to CLSI guidelines (M07-2012). Appropriate inoculation suspension density was assessed using a Sensititre Nephelometer with a Sensititre 0.5 […]
as §5
Frequency of Resistance. Frequency of resistance was assessed by spread plating between […] cfu of a freshly-grown culture of the strain of interest on plates containing a concentration of compound corresponding to 4 times the MIC of the strain (as determined by agar-dilution MIC). Serial dilutions of the same cultures were plated on non-selective media to determine the number of cells plated. The frequency of resistance was determined by dividing the number of colonies obtained on the selective plates after 24 hours of growth by the calculated total population plated. Typically 4 independently grown cultures were used to initiate 4 separate experiments, and the total combined number of obtained colonies and plated populations were used for calculations. Isolated colonies from selection plates were re-streaked on an additional plate containing the same concentration of compound used in the original selection. Clones were saved at -80 °C for subsequent analysis.
Whole-genome sequencing and data analysis. Genomic DNA of selected clones was prepared using an Epicentre MasterPure Complete DNA Purification Kit. Whole-genome sequencing libraries were prepared using an Illumina Nextera XT Library Preparation Kit. The libraries were sequenced using an Illumina MiSeq device with a V3 600-cycle reagent kit. Whole-genome sequencing data was analyzed using CLC Genomics Workbench Version 11. […]

[5] = system: HepG2 cells; assay: HepG2 cytotoxicity (72 h); assay type: cell-based
Description: Thermodynamic solubility was assessed by dissolving 2 to 3 mg of test compound to equilibrium in 100 mM KPO4-buffer, pH 7.4. The metabolic stability assay was performed in the presence of human and mouse liver microsomes by measurement of test compounds disappearance over time (60 min). The plasma protein binding assay, including stability estimation, was performed using the RED devices (Thermo Fisher Scientific) in the presence of human and mouse plasma. All samples from the in vitro ADME studies were quantified by liquid chromatography-triple quadrupole mass spectrometry (LC–MS/MS). The assays were performed as previously described ([36]) and the details are available in SI Appendix. Cytotoxicity was assessed by incubation of test compounds in the presence of HepG2 cells for 72 h as previously described ([37]).

[6] = system: E. coli ATCC 25922 ΔtolC efflux mutant; assay: MIC, E. coli efflux mutant; assay type: cell-based
Description: as §1, §2, §3

[7] = in vitro; assay type: cell-based
Description: as §6, with “0.5 McFarland Standard. Serum MICs were conducted in 50% heat-inactivated pooled human serum (Sigma-Aldrich). Serum was heated to 56 °C for one hour and then filtered using a 0.2 µm” for “0.5”
Strain construction. The efflux-defective P. mirabilis strain EN1490 was constructed using EZ-Tn5 <KAN-2> Transposome mutagenesis with TypeOne Restriction Inhibitor. Approximately 3000 independent clones were screened for increased susceptibility to chloramphenicol (8 mg/L), yielding 2 independent clones with insertions in the gene tolC. […]

[8] = ATCC13883, read-out: MIC K. pneumoniae ATCC 13883 Wild-type
[9] = Homo sapiens, HepG2, 72 h, read-out: HepG2 viability IC50, 72 h

Structure (SMILES) | MIC [1] [µg/mL] | MIC [2] [µg/mL] | MIC [3, 8] [µg/mL] | MIC ([4]; MG1655, read-out: MIC CH6045) [µg/mL] | MIC ([4]; MG1655, read-out: MIC CH6047) [µg/mL] | MIC ([4]; MG1655, read-out: MIC CH6048) [µg/mL] | MIC ([4]; MG1655, read-out: MIC CH6051) [µg/mL] | MIC ([4]; MG1655, read-out: MIC CH7010) [µg/mL] | MIC ([4]; MG1655, read-out: MIC CH7011) [µg/mL] | MIC ([4]; MG1655, read-out: MIC CH7012) [µg/mL] | MIC ([4]; MG1655, read-out: MIC CH7013) [µg/mL] | MIC ([4]; MG1655, read-out: MIC CH7015) [µg/mL] | MIC ([4]; MG1655, read-out: MIC CH7016) [µg/mL] | MIC ([4]; MG1655, read-out: MIC CH8845) [µg/mL] | MIC ([4]; MG1655, read-out: MIC CH8846) [µg/mL] | MIC ([4]; MG1655, read-out: MIC CH8847) [µg/mL] | MIC ([4]; MG1655, read-out: MIC CH8848) [µg/mL] | MIC ([4]; MG1655, read-out: MIC CH8850) [µg/mL] | MIC ([4]; MG1655, read-out: MIC CH8851) [µg/mL] | MIC ([4]; MG1655, read-out: MIC CH8853) [µg/mL] | further results
CN(c1ccccc1C(=O)Nc1ccc(S(=O)(=O)N2CCN(c3cccc(C(F)(F)F)c3)CC2)cc1)S(C)(=O)=O [JEDI-1444] | 0.016 (≈ 0.0268 µM) | 2 (≈ 3.35 µM) | 2 (≈ 3.35 µM) | 0.25 (≈ 0.419 µM) | 1 (≈ 1.68 µM) | 0.064 (≈ 0.107 µM) | > 2 | 0.064 (≈ 0.107 µM) | 0.25 (≈ 0.419 µM) | 0.064 (≈ 0.107 µM) | 0.125 (≈ 0.21 µM) | 0.064 (≈ 0.107 µM) | 0.125 (≈ 0.21 µM) | 1 (≈ 1.68 µM) | 0.25 (≈ 0.419 µM) | > 2 | 0.5 (≈ 0.838 µM) | 0.5 (≈ 0.838 µM) | 0.25 (≈ 0.419 µM) | 0.25 (≈ 0.419 µM) | MIC ([3]; ATCC13883, read-out: MIC K. pneumoniae ATCC 13883 In 50% human serum): 32 µg/mL (≈ 53.6 µM); MIC ([4]; MG1655, read-out: MIC CH8854): 0.25 µg/mL (≈ 0.419 µM); MIC ([4]; MG1655, read-out: MIC CH8855): > 2 µg/mL; MIC ([4]; MG1655, read-out: MIC CH8856): > 2 µg/mL; MIC ([4]; MG1655, read-out: MIC CH8868): 2 µg/mL (≈ 3.35 µM); MIC ([4]; MG1655, read-out: MIC CH8869): 0.064 µg/mL (≈ 0.107 µM); MIC ([4]; MG1655, read-out: MIC CH8870): 0.25 µg/mL (≈ 0.419 µM); MIC ([4]; MG1655, read-out: MIC CH8871): 2 µg/mL (≈ 3.35 µM); IC50 [5, 9]: > 64 µM; MIC E. coli ATCC 25922 ΔtolC efflux mutant [6]: ≤0.125 µg/mL; hemolysis [7]: 0.02%
CN(c1ccccc1C(=O)Nc1ccc(S(=O)(=O)N2CCCCC2)cc1)S(C)(=O)=O [JEDI-852] | 4 (≈ 8.86 µM) | > 64 | > 64 | 64 (≈ 142 µM) | > 64 | 32 (≈ 70.9 µM) | > 64 | 2 (≈ 4.43 µM) | 16 (≈ 35.4 µM) | 16 (≈ 35.4 µM) | > 64 | 32 (≈ 70.9 µM) | 16 (≈ 35.4 µM) | 32 (≈ 70.9 µM) | 32 (≈ 70.9 µM) | > 64 | > 64 | > 64 | 8 (≈ 17.7 µM) | > 64 | MIC ([4]; MG1655, read-out: MIC CH8854): > 64 µg/mL; MIC ([4]; MG1655, read-out: MIC CH8855): > 64 µg/mL; MIC ([4]; MG1655, read-out: MIC CH8856): > 64 µg/mL; MIC ([4]; MG1655, read-out: MIC CH8868): > 64 µg/mL; MIC ([4]; MG1655, read-out: MIC CH8869): 4 µg/mL (≈ 8.86 µM); MIC ([4]; MG1655, read-out: MIC CH8870): 32 µg/mL (≈ 70.9 µM); MIC ([4]; MG1655, read-out: MIC CH8871): > 64 µg/mL; IC50 [5, 9]: > 32 µM; IC50 ([5]; read-out: HepG2 viability IC50, 72 h): > 64 µM; MIC E. coli ATCC 25922 ΔtolC efflux mutant [6]: 4 µg/mL (≈ 8.86 µM); hemolysis [7]: 0.03%
